Earlier results in publication PMC7070898 (Clinical and Translational Science, 2019).

Tests used:
BTK = BTK (Homo sapiens, UniProt Q06187); conditions: single dose, cited from earlier work
[1] = patients receiving acalabrutinib ref 12; cited from earlier work

Sequence of BTK (Q06187 whole entry): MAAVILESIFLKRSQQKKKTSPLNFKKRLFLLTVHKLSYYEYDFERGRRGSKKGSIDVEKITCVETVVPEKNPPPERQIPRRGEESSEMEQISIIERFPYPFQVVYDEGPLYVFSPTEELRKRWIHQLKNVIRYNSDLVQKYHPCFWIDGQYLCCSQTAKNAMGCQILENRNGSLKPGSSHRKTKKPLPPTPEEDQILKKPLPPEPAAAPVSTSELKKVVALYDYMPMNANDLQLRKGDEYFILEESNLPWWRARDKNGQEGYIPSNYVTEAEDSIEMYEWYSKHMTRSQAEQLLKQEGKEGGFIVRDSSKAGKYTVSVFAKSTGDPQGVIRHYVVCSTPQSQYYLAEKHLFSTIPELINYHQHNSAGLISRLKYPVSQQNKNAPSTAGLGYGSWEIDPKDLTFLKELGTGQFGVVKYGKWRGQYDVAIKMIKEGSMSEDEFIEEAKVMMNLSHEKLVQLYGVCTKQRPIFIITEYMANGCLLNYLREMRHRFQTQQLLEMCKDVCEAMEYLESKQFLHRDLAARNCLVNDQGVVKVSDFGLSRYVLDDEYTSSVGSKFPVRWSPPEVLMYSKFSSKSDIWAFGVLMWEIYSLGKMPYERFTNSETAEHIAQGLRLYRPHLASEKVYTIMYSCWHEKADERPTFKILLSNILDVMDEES

For `C=CC(=O)Nc1cccc(Nc2nc(Nc3ccc(OCCOC)cc3)ncc2F)c1` [CC‐292], the BTK occupancy (BTK; five of six healthy subjects, ≤ 4 hours after administration ref 21) is listed as over 98% and the “duration of complete or near‐complete BTK occupancy” value (BTK; healthy subjects ref 21) is listed as 8 to 24 h.

In the case of `CC#CC(=O)N1CCC[C@H]1c1nc(-c2ccc(C(=O)Nc3ccccn3)cc2)c2c(N)nccn12` [acalabrutinib], the “atrial fibrillation/flutter, patients” value [1] is listed as 3%.
